Data from patent US11351140B2, “Resolvin mimetic antibodies and uses thereof” (J. Craig Venter Institute, Inc., priority 2017, dated 2022).

B1: C4: resolvimab, anti-ERV-1 monoclonal antibody; VH SEQ ID NO: 14, VK SEQ ID NO: 16 (antibody, V domains shown)
VH: EVKLEESGAELVMPGASVKLSCKASGYTFTSYWMHWVKQRPGQGLEWVAEIDPSDSYTNYNQKFKGKATLTVDKSSSTAYMQLSSLTSEDSAVYYCARDGDILTTVVAKGFVYWGQGTLV
VL: LSLPVSLGDQASISCRSSQTIVHSNGNTYLEWYLQKPGQSPKLLIYKVSNRFSGVPDRFSGSGSGTDFTLKISRVEAEDLGVYYCFQGSHVPWTFGGGTKLEIK
modifications: Immunoglobulin VH Region; Immunoglobulin VL(K) region

What was measured:
[1] = molecular target: T1, ERV-1 receptor (CHO-ERV-1 positive cells) (Homo sapiens, UniProt Q99788); experiment: Intracellular calcium signaling (Calcium5 FLIPR) in CHO ERV1+ cells; assay type: cell-based; conditions: 1, 10, 100 nM
T1 construct: host or cells: CHO-K1/CMKLR1/Ga15 (CHO ERV1+)
T1 sequence (Q99788 1-373): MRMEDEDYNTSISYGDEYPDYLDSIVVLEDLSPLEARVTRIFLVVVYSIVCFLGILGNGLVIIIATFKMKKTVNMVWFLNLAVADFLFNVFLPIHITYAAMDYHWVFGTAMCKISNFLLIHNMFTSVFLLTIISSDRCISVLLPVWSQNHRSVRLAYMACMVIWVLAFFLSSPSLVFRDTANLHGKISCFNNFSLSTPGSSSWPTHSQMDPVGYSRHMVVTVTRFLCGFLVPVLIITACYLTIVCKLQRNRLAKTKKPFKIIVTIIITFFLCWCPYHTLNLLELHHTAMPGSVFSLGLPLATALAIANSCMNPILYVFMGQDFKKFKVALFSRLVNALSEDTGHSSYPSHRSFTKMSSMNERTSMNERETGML
Method: To investigate calcium mobilization, cells were transferred to a 96-well plate at density of 60,000 cells per well in 80 μl of growth medium 18 hours prior to the day of experiment and maintained at 37° C./5% CO2.
After aspiration of the media, cells were labeled with the fluorescent probe, Calcium5 FLIPR (Medical Devices). After agonist treatment, detection of changes in fluorescence were detected by microplate reader and expressed as change in relative fluorescence units (ΔRFU).
To investigate calcium mobilization, CHO ERV1+ cells were transferred to a 96-well plate at density of 60,000 cells per well in 80 μl of growth medium 18 hours prior to the day of experiment and maintained at 37° C./5% CO2. After aspiration of the media, cells were labeled with the fluorescent probe, Calcium5 FLIPR (Medical Devices). After agonist treatment, detection of changes in fluorescence were detected by microplate reader and expressed as change in relative fluorescence units (ARFU).
To determine whether the immune complexes between ERV-1 receptor and various anti-ERV-1 antibodies permit the bound immune complex to interact with ERV-1 cellular receptor functions, an in vitro assay was devised. To that end, calcium intracellular signaling was measured upon agonist ligand binding. […] After 20 seconds, calcium mobilization was measured through fluorescence (FIG. 15). […]

ERV1tg mice = experiment: Zymosan-induced peritonitis, peritoneal lavage cells by flow cytometry; assay type: in vivo; conditions: injected together with zymosan; 12 hours of inflammation
Method: Cells were extracted from peritoneal exudates collected after 12 hours of intraperitoneal injection of zymosan-A (1 mg/ml in PBS). Isolated cells were incubated with anti-Fc receptor (BD) blocking antibody (5 μg/ml×106 cells, 15 min) and then labeled with anti-human ERV1 alexafluor 488-conjugated antibody (10 μg/ml×106 cells, 1 hour at RT) or anti-IgG alexafluor 488 (isotype control, R&D Systems). Expression of ERV1 on neutrophils was evaluated by immunofluorescence and quantified by flow cytometry. ERV-1, […] positive monocytes were stained with PE-conjugated anti-mouse Arg-1 and FITC-conjugated anti-mouse EGR-(10 μg/ml×106 cells, 1 hour at RT) (BD Biosciences).
Peritonitis was initiated by zymosan particle injections […] to ERV1tg mice peritoneal tissues. It had been previously established that Resolvin-E1 could affect inflammation-related responses in an ERV-1 dependent manner in vivo in cells derived from diabetic subjects (Freire, M. et al., J. Immunol. 198(2):718-728 (2017)). To further understand the biological response induced by resolvimabs, purified clones were injected together with the zymosan stimuli (FIGS. 9A-D). […] We have looked if these compound would influence the phenotype of neutrophils and monocytes after 12 hours of inflammation in vivo.

Row | Molecule | agonist functions (calcium intracellular signaling) [1] | inflammatory infiltrate (flow cytometry quantification) (ERV1tg mice)
1 | CC[C@@H](O)/C=C/C=C\C[C@@H](O)/C=C/C=C/C=C\[C@@H](O)CCCC(=O)O [resolvinE-1, resolvin E1] | found | 
2 | B1 |  | decrease
